# Experimental data as given in patent US8362031B2, “Lonidamine analogues and treatment of polycystic kidney disease” (University of Kansas, priority 2004, dated 2013).
# System: male rats
# Experiment: Fertility trials following oral administration (challenge mating)
# Type: in vivo, rat
# Conditions: for Embryos abnormal (mean number per pregnant female) / Embryos normal (mean number per pregnant female) / Males fertile: Table 9B, single oral dose of 6 mg/kg; for MALES MATED/MALES FERTILE: Table 9C
# Procedure: The following table illustrates the results of a single oral does of 6 mg/kg of RC-MC-110 orally to male rats. […] The ethyl alcohol was evaporated 10% prior to administration. The “embryos normal” and “embryos abnormal” represents the mean number of embryos per pregnant female. […]
# The following table illustrates the results of a single oral does of four different doses of RC-MC-110 orally to male rats.
smiles,measurement,setting,value
"O=C(O)/C=C/c1nn(Cc2ccc(Cl)cc2Cl)c2cc(C(F)(F)F)ccc12 [RC-MC-110, trans 3-[1-(2,4-dichlorobenzyl)-6-trifluoromethyl-1H-indazol-3-yl]-acrylic acid]",Embryos abnormal (mean number per pregnant female),week 8,1
same,Embryos normal (mean number per pregnant female),week 8,12
same,Males fertile,"week 8, 7 males mated",3
same,Embryos abnormal (mean number per pregnant female),week 9,0.4
same,Embryos normal (mean number per pregnant female),week 9,12
same,Males fertile,"week 9, 7 males mated",4
same,Embryos abnormal (mean number per pregnant female),week 10,1
same,Embryos normal (mean number per pregnant female),week 10,11
same,Males fertile,"week 10, 7 males mated",3
same,Embryos abnormal (mean number per pregnant female),week 12,0.1
same,Embryos normal (mean number per pregnant female),week 12,14
same,Males fertile,"week 12, 7 males mated",4
same,Embryos abnormal (mean number per pregnant female),week 13,1.0
same,Embryos normal (mean number per pregnant female),week 13,14
same,Males fertile,"week 13, 7 males mated",3
same,Embryos abnormal (mean number per pregnant female),week 14,0.7
same,Embryos normal (mean number per pregnant female),week 14,11
same,Males fertile,"week 14, 7 males mated",4
same,Embryos abnormal (mean number per pregnant female),week 18,0.7
same,Embryos normal (mean number per pregnant female),week 18,14
same,Males fertile,"week 18, 7 males mated",4
same,Embryos abnormal (mean number per pregnant female),week 26,0.6
same,Embryos normal (mean number per pregnant female),week 26,13
same,Males fertile,"week 26, 7 males mated",3
same,MALES MATED/MALES FERTILE,"single oral dose 0.75 MG/KG in 10% ethyl alcohol and sesame oil, week 1",6/6
same,MALES MATED/MALES FERTILE,"single oral dose 0.75 MG/KG in 10% ethyl alcohol and sesame oil, week 2",8/8
same,MALES MATED/MALES FERTILE,"single oral dose 0.75 MG/KG in 10% ethyl alcohol and sesame oil, week 3",6/6
same,MALES MATED/MALES FERTILE,"single oral dose 0.75 MG/KG in 10% ethyl alcohol and sesame oil, week 4",6/6
same,MALES MATED/MALES FERTILE,"single oral dose 0.75 MG/KG in 10% ethyl alcohol and sesame oil, week 5",6/6
same,MALES MATED/MALES FERTILE,"single oral dose 0.75 MG/KG in 10% ethyl alcohol and sesame oil, week 6",6/6
same,MALES MATED/MALES FERTILE,"single oral dose 0.75 MG/KG in 10% ethyl alcohol and sesame oil, week 7",6/6
same,MALES MATED/MALES FERTILE,"single oral dose 0.75 MG/KG in 10% ethyl alcohol and sesame oil, week 8",6/6
same,MALES MATED/MALES FERTILE,"single oral dose 1.5 MG/KG in 10% ethyl alcohol and sesame oil, week 1",6/5
same,MALES MATED/MALES FERTILE,"single oral dose 1.5 MG/KG in 10% ethyl alcohol and sesame oil, week 2",6/6
same,MALES MATED/MALES FERTILE,"single oral dose 1.5 MG/KG in 10% ethyl alcohol and sesame oil, week 3",6/5
same,MALES MATED/MALES FERTILE,"single oral dose 1.5 MG/KG in 10% ethyl alcohol and sesame oil, week 4",6/5
same,MALES MATED/MALES FERTILE,"single oral dose 1.5 MG/KG in 10% ethyl alcohol and sesame oil, week 5",6/6
same,MALES MATED/MALES FERTILE,"single oral dose 1.5 MG/KG in 10% ethyl alcohol and sesame oil, week 6",6/6
same,MALES MATED/MALES FERTILE,"single oral dose 1.5 MG/KG in 10% ethyl alcohol and sesame oil, week 7",6/6
same,MALES MATED/MALES FERTILE,"single oral dose 1.5 MG/KG in 10% ethyl alcohol and sesame oil, week 8",6/6
same,MALES MATED/MALES FERTILE,"single oral dose 1.5 MG/KG in 10% ethyl alcohol and sesame oil, week 9",6/6
same,MALES MATED/MALES FERTILE,"single oral dose 3.0 MG/KG in 10% ethyl alcohol and sesame oil, week 1",6/6
same,MALES MATED/MALES FERTILE,"single oral dose 3.0 MG/KG in 10% ethyl alcohol and sesame oil, week 2",6/6
same,MALES MATED/MALES FERTILE,"single oral dose 3.0 MG/KG in 10% ethyl alcohol and sesame oil, week 3",6/3
same,MALES MATED/MALES FERTILE,"single oral dose 3.0 MG/KG in 10% ethyl alcohol and sesame oil, week 4",6/2
same,MALES MATED/MALES FERTILE,"single oral dose 3.0 MG/KG in 10% ethyl alcohol and sesame oil, week 5",6/6
same,MALES MATED/MALES FERTILE,"single oral dose 3.0 MG/KG in 10% ethyl alcohol and sesame oil, week 6",6/6
same,MALES MATED/MALES FERTILE,"single oral dose 3.0 MG/KG in 10% ethyl alcohol and sesame oil, week 7",6/6
same,MALES MATED/MALES FERTILE,"single oral dose 3.0 MG/KG in 10% ethyl alcohol and sesame oil, week 8",6/6
same,MALES MATED/MALES FERTILE,"single oral dose 3.0 MG/KG in 10% ethyl alcohol and sesame oil, week 9",6/6
same,MALES MATED/MALES FERTILE,"single oral dose 6.0 MG/KG in 10% ethyl alcohol and sesame oil, week 1",7/7
same,MALES MATED/MALES FERTILE,"single oral dose 6.0 MG/KG in 10% ethyl alcohol and sesame oil, week 2",7/7
same,MALES MATED/MALES FERTILE,"single oral dose 6.0 MG/KG in 10% ethyl alcohol and sesame oil, week 3",7/2
same,MALES MATED/MALES FERTILE,"single oral dose 6.0 MG/KG in 10% ethyl alcohol and sesame oil, week 4",7/0
same,MALES MATED/MALES FERTILE,"single oral dose 6.0 MG/KG in 10% ethyl alcohol and sesame oil, week 5",7/0
same,MALES MATED/MALES FERTILE,"single oral dose 6.0 MG/KG in 10% ethyl alcohol and sesame oil, week 6",7/1
same,MALES MATED/MALES FERTILE,"single oral dose 6.0 MG/KG in 10% ethyl alcohol and sesame oil, week 7",7/2
same,MALES MATED/MALES FERTILE,"single oral dose 6.0 MG/KG in 10% ethyl alcohol and sesame oil, week 8",7/3
same,MALES MATED/MALES FERTILE,"single oral dose 6.0 MG/KG in 10% ethyl alcohol and sesame oil, week 9",7/4
same,MALES MATED/MALES FERTILE,"single oral dose 6.0 MG/KG in 10% ethyl alcohol and sesame oil, week 10",7/3
same,MALES MATED/MALES FERTILE,"single oral dose 6.0 MG/KG in 10% ethyl alcohol and sesame oil, week 12",7/4
same,MALES MATED/MALES FERTILE,"single oral dose 6.0 MG/KG in 10% ethyl alcohol and sesame oil, week 13",7/3
same,MALES MATED/MALES FERTILE,"single oral dose 6.0 MG/KG in 10% ethyl alcohol and sesame oil, week 14",7/4
